Values quoted from earlier work in US20250134147A1, “METHODS AND COMPOSITIONS FOR IMPROVED SUGAR-LIKE TASTE” (ALMENDRA (THAILAND) LTD., priority 2021, published 2025).
Like-named read-outs stand apart in the source and are kept apart here.

Legend:
[1] = for sweetness potency, times higher than sucrose: relative to sucrose, Tanaka 1987 / Phillips 1989; for sweetness potency, times more potent than sucrose: sensory evaluations, Crammer and Ikan 1986
[2] = comparison among steviol glycosides
[3] = Kinghorn 2002

| SMILES | sweetness potency, times higher than sucrose [1] | taste quality / sensory attributes [2] | further results |
| --- | --- | --- | --- |
| C=C1C[C@@]23CCC4[C@@](C)(CCC[C@@]4(C)C(=O)OC4O[C@H](CO)[C@@H](O)[C@H](O)[C@H]4O)C2CC[C@]1(O[C@@H]1O[C@H](CO)[C@@H](O)[C@H](O[C@@H]2O[C@H](CO)[C@@H](O)[C@H](O)[C@H]2O)[C@H]1O[C@H]1O[C@H](C)[C@@H](O)[C@H](O)[C@@H]1O)C3 (some centres unmarked) [Rebaudioside C] | 40-60 times | – | – |
| C=C1C[C@@]23CC[C@H]4[C@@](C)(CCC[C@@]4(C)C(=O)O[C@@H]4O[C@H](CO)[C@@H](O)[C@H](O)[C@H]4O)[C@@H]2CC[C@]1(O[C@@H]1O[C@H](CO)[C@@H](O)[C@H](O)[C@H]1O[C@@H]1O[C@@H](C)[C@H](O)[C@@H](O)[C@H]1O)C3 [Dulcoside A] | 30 times | – | – |
| C=C1C[C@@]23CC[C@H]4[C@@](C)(CCC[C@@]4(C)C(=O)O[C@@H]4O[C@H](CO)[C@@H](O)[C@H](O)[C@H]4O[C@@H]4O[C@H](CO)[C@@H](O)[C@H](O)[C@H]4O)[C@@H]2CC[C@]1(O[C@@H]1O[C@H](CO)[C@@H](O)[C@H](O[C@@H]2O[C@H](CO)[C@@H](O)[C@H](O)[C@H]2O)[C@H]1O[C@@H]1O[C@H](CO)[C@@H](O)[C@H](O)[C@H]1O)C3 [Rebaudioside D] | – | very desirable taste profile | – |
| C=C1C[C@@]23CC[C@H]4[C@@](C)(CCC[C@@]4(C)C(=O)O[C@@H]4O[C@H](CO)[C@@H](O)[C@H](O)[C@H]4O)[C@@H]2CC[C@]1(O[C@@H]1O[C@H](CO)[C@@H](O)[C@H](O)[C@H]1O)C3 [rubusoside] | – | significantly inferior to that of stevioside | – |
| C=C1C[C@@]23CC[C@H]4[C@@](C)(CCC[C@@]4(C)C(=O)O)[C@@H]2CC[C@]1(O[C@@H]1O[C@H](CO)[C@@H](O)[C@H](O)[C@H]1O[C@@H]1O[C@H](CO)[C@@H](O)[C@H](O)[C@H]1O)C3 [Steviolbioside] | – | significantly inferior to that of stevioside | – |
| C=C1C[C@@]23CC[C@H]4[C@@](C)(CCC[C@@]4(C)C(=O)O[C@@H]4O[C@H](CO)[C@@H](O)[C@H](O)[C@H]4O)[C@@H]2CC[C@]1(O[C@@H]1O[C@H](CO)[C@@H](O)[C@H](O[C@@H]2O[C@H](CO)[C@@H](O)[C@H](O)[C@H]2O)[C@H]1O[C@@H]1O[C@H](CO)[C@@H](O)[C@H](O)[C@H]1O)C3 [Rebaudioside A, (3R,4S,5S,6R)-3,4,5-trihydroxy-6-(hydroxymethyl)tetrahydro-2H-pyran-2-yl(4R,4αS,11αR,11βS)-10-(((2R,3R,5R,6R)-5-hydroxy-6-(hydroxymethyl)-3,4-bis(((2S,3R,4S,5S,6R)-3,4,5-trihydroxy-6-(hydroxymethyl)tetrahydro-2H-pyran-2-yl)oxy)tetrahydro-2H-pyran-2-yl)oxy)-4,11β-dimethyl-8-methylenetetradecahydro-6α,9-methanocyclohepta[a]naphthalene-4-carboxylate] | – | the least astringent, the least bitter, and the least persistent aftertaste | sweetness potency, times more potent than sucrose [1]: 350-450 times; taste quality / sensory attributes ([2]; listed as rebaudioside A): clearly surpasses stevioside and rebaudioside B |
| C=C1C[C@@]23CC[C@H]4[C@@](C)(CCC[C@@]4(C)C(=O)O)[C@@H]2CC[C@]1(O[C@@H]1O[C@H](CO)[C@@H](O)[C@H](O[C@@H]2O[C@H](CO)[C@@H](O)[C@H](O)[C@H]2O)[C@H]1O[C@@H]1O[C@H](CO)[C@@H](O)[C@H](O)[C@H]1O)C3 [Rebaudioside B, (4R,4αS,6αR,9S,11αR,11βS)-9-(((2S,3R,5R,6R)-5-hydroxy-6-(hydroxymethyl)-4-(((2S,3R,4S,5S,6R)-3,4,5-trihydroxy-6-(hydroxymethyl)tetrahydro-2H-pyran-2-yl)oxy)-3-(((3R,4S,5S,6R)-3,4,5-trihydroxy-6-(hydroxymethyl)tetrahydro-2H-pyran-2-yl)oxy)tetrahydro-2H-pyran-2-yl)oxy)-4,11β-dimethyl-8-methylenetetradecahydro-6α,9-methanocyclohepta[a]naphthalene-4-carboxylic acid] | – | – | sweetness potency, times more potent than sucrose [1]: 300-350 times; water solubility [3]: about 0.1% |
| C=C1C[C@@]23CC[C@H]4[C@@](C)(CCC[C@@]4(C)C(=O)O[C@@H]4O[C@H](CO)[C@@H](O)[C@H](O)[C@H]4O)[C@@H]2CC[C@]1(O[C@@H]1O[C@H](CO)[C@@H](O)[C@H](O)[C@H]1O[C@@H]1O[C@H](CO)[C@@H](O)[C@H](O)[C@H]1O)C3 [Stevioside] | 110-270 times | – | – |
